The text below walks through data of patent US20230346969A1, “INTERMEDIATE FOR PREPARING ANTIBODY-DRUG CONJUGATE (ADC), PREPARATION METHOD THEREFOR, AND USE THEREOF” (priority 2020, published 2023).

Data set [1] has as its target Human trophoblast cell surface antigen 2 (Trop-2), on tumor cell lines (human) (UniProt P09758). Put plainly: flow cytometry, 5 ug/mL hRS7 + PE anti-human IgG; cell line CFPAC-1 (pancreas). On the technique in general: A flow cytometer gives signals particle by particle.
Sequence of UniProt P09758 (P09758 27-323): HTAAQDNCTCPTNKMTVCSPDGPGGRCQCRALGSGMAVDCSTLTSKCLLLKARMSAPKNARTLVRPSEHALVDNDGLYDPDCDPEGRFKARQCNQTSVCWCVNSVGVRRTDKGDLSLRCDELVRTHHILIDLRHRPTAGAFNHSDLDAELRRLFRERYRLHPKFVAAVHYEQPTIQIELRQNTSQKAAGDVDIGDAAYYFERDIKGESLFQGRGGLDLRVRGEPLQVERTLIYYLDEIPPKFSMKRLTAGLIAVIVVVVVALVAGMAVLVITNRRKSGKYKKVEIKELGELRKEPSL
Data set [2] has the same target. Nature of the data set: flow cytometry, 5 ug/mL hRS7 + PE anti-human IgG; cell line printed 'CPAC-1' (pancreas; probably CFPAC-1).
The test system of another data set is MDA-MB-231. Nature of the data set: Cell viability assay (CCK-8). In kind it is cell-based. Conditions: ADCs; CCK-8, 96 hours; cell 'SRM-K9-231' [sic], Mamary; read-out: IC50 (95% Cl). The procedure: (§1) Cell viability was determined using Cell Counting Kit 8 (CCK-8). Cells were seeded into 96-well plates at 3000-10000 cells/well. After incubation overnight, drugs were added at different concentrations. Plates were incubated in a 5% CO2, 37° C. humidified chamber for 96 hours. CCK8 reagent was added thereto and the plates were placed back to the incubator until the absorbance at 450 nm of untreated control cells was greater than 1.0. Growth inhibition was measured as the percent growth relative to untreated cells. Dose response curve was generated from the mean values of two or three tests, and IC50 values were calculated using Prism GraphPad software.
(§2) The anti-tumor efficacy of different payloads on different tumor cell lines was detected by CCK-8, and the results are shown in FIG. 5.

For a further data set, the system named is SKBR3. Put plainly: Cell viability assay (CCK-8). Conditions: ADCs; CCK-8, 96 hours; 'SKERS' [sic], Mammary; read-out: IC50 (95% Cl). In kind it is cell-based. As to the method: as §1, §2
The next data set deals with MDA-MB-468. Nature of the data set: Cell viability assay (CCK-8). In kind it is cell-based. The following applies: ADCs; CCK-8, 96 hours; SRM-M9-409, Mammary; read-out: IC50 (95% Cl). The procedure:
as §1, §2

The test system of another data set is NCI-H1688. Nature of the data set: Cell viability assay (CCK-8). In kind it is cell-based. Conditions: ADCs; CCK-8, 96 hours; cell 'HCl-11685' [sic], Lung; read-out: IC50 (95% Cl). As to the method: as §1, §2
Another data set concerns Capan-1. Put plainly: Cell viability assay (CCK-8). In kind it is cell-based. The following applies: ADCs; CCK-8, 96 hours; Cxoo-1 [sic], Pancreas; read-out: IC50 (95% Cl). As to the method: as §1, §2
The test system of the next data set is BXPC-3. Nature of the data set: Cell viability assay (CCK-8). Conditions: ADCs; CCK-8, 96 hours; cell RMCA [sic], Pancreas; read-out: IC50 (95% Cl). In kind it is cell-based. The procedure:
as §1, §2

Another data set has as its system NCIH2452. Nature of the data set: Cell viability assay (CCK-8). In kind it is cell-based. Conditions: ADCs; CCK-8, 96 hours; cell 'HOC2401' [sic], Lung; read-out: IC50 (95% Cl). The procedure:
as §1, §2

The test system of another data set is COLO205. Nature of the data set: Cell viability assay (CCK-8). In kind it is cell-based. Conditions: ADCs; CCK-8, 96 hours; cell printed 'COXC28', Colon; read-out: IC50 (95% Cl). As to the method: as §1, §2
The subject of a further data set is CFPAC-1. Nature of the data set: Cell viability assay (CCK-8). In kind it is cell-based. Conditions: ADCs; CCK-8, 96 hours; cell CPAC-1 [sic], Pancreas; read-out: IC50 (95% Cl). The procedure: as §1, §2
A further data set relates to SCLC-21H. Nature of the data set: Cell viability assay (CCK-8). In kind it is cell-based. Conditions: ADCs; CCK-8, 96 hours; SRM-C-21H; read-out: IC50 (95% Cl). The procedure: as §1, §2
For another data set, the system named is HT29. Nature of the data set: Cell viability assay (CCK-8). In kind it is cell-based. The following applies: ADCs; CCK-8, 96 hours; cell '3128' [sic], Colon; read-out: IC50 (95% Cl). The procedure:
as §1, §2

A further data set deals with SK-MES-1. Put plainly: Cell viability assay (CCK-8). In kind it is cell-based. Conditions: ADCs; CCK-8, 96 hours; cell 'SK-WSS-7' [sic], Lung; read-out: IC50 (95% Cl). As to the method:
as §1, §2

A further data set deals with HCC1806. Put plainly: Cell viability assay (CCK-8). In kind it is cell-based. The following applies: ADCs; CCK-8, 96 hours; 'HOC1906' [sic], Mamary; read-out: IC50 (95% Cl). As to the method:
as §1, §2

Data set [3] in a line: Adverse effects and weight loss of mice treated in the efficacy models. The following applies: hRS7-VK-MMAE 3 mg/kg; hRS7-VK-SN38 3 or 10 mg/kg; PTX alone. In kind it is in vivo, BALB/c nu/nu mice. The source says:
(§3) Five-week-old female athymic BALB/c nu/nu mice were purchased from Charles River Company (Shanghai, China), and mice were randomly divided into 5-6 mice/group. Animal handling and procedures were approved and performed in accordance with the requirements of the Institutional Animal Care and Use Committee (IACUC) of Shanghai Institute of Materia Medica, Chinese Academy of Sciences. All models were inoculated subcutaneously on the side of mice. BXPC-3, HCC1806 and NCIH1688 cells were established by injecting and homogenizing 5 × 10^6 cells in Matrigel matrix. COLO205 cells were established by injecting and suspending 1 × 10^7 cells in Matrigel matrix. After the tumor volume reached about 200 mm^3, the tumor-bearing mice were randomly divided into treatment groups and a control group according to the tumor volume. Each drug was administered intraperitoneally. Mice were injected at doses of 3 or 10 mg/kg (10 mL/kg). Tumor volume was defined as length × ½ × width × width. The percentage of inhibition was calculated by the following formula: (1-average tumor volume of the treatment group/average tumor volume of the control group)×100%. Toxicity of the different treatment groups was assessed by monitoring weight loss.

The subject of data set [4] is mixture of Trop-2-positive tumor cells BXPC-3 and Trop-2-negative tumor cells NCIH1688. Nature of the data set: Bystander effect: transplanted tumor from mixture of BXPC-3 and NCIH1688 cells. The following applies: 3 mg/kg, transplanted tumors heterogeneously expressing Trop-2. In kind it is in vivo, BALB/c-nu/nu mice.
Excerpt: as §3, with “Mice were injected at doses of 3 or 10 mg/kg (10 mL/kg). Tumor volume was defined as length × ½ × width × width.” left out
(§4) A mixture of Trop-2-positive tumor cells BXPC-3 and Trop-2-negative tumor cells NCIH1688 or NCIH1688 cells alone were inoculated into BALB/c-nu/nu mice (FIG. 1e, right panel), and the “bystander effect” of hRS7-VK-PTX was detected in a mouse transplanted tumor model.

Data set [5] can be described thus: Dose tolerability, single intravenous dose acute toxicity. In kind it is in vivo. The following applies: single intravenous dose 60 mg/kg, BALB/c mice. The procedure: Dose tolerability assay was performed in BALB/c mice (3 mice per dose). The drug was given in a single intravenous dose. The injection doses of hRS7-VK-PTX were 60, 80 and 100 mg/kg, and the injection doses of hRS7-VK-MMAE were 60 and 80 mg/kg, respectively. Toxicity was assessed by observing mouse behavior, weight loss and survival. The weight change rate (%) was calculated as: (body weight - body weight before treatment)/(body weight before treatment) × 100%.
The safety of relatively high doses of hRS7-VK-PTX in BALB/c mice was studied by an acute toxicity experiment with single intravenous administration in mice.

The next data set has as its system NCIH1688 cells. Put plainly: Transplanted tumor from NCIH1688 cells alone (not expressing Trop-2). In kind it is in vivo, BALB/c-nu/nu mice. The following applies: hRS7-VK-PTX 10 mg/kg, hRS7-VK-MMAE 3 mg/kg.
Excerpt: as §3, with “Mice were injected at doses of 3 or 10 mg/kg (10 mL/kg). Tumor volume was defined as length × ½ × width × width.” left out
as §4

Humanized Trop-2 antibody hRS7: the MFI in [1] came out at 35400 MFI; in data set [2] it was 3840 MFI.
Take hRS7-VK-MMAE: the IC50 – broadly, the concentration that inhibits the measured activity by half – with MDA-MB-231 was more than 300 nM; in the data set with SKBR3, approximately 2.24 nM; in the data set on MDA-MB-468, 0.0645 nM; in the data set on NCI-H1688, approximately 3.76 nM; in the data set with Capan-1 it was more than 300 nM; with BXPC-3 it was 0.0124 nM. In addition, the IC50 is approximately 1.21 nM in the data set on NCIH2452; more than 300 nM in the data set on COLO205; more than 300 nM in the data set with CFPAC-1; 0.0324 nM in the data set on SCLC-21H; approximately 250 nM in the data set on HT29; more than 325 nM with SK-MES-1. For the same substance, the IC50 in the data set with HCC1806 was 0.0174 nM. Further, in data set [3], the “adverse effects or weight loss in treated mice, relative to hRS7-VK-PTX (none)” value is listed as “stark contrast”. Further, in data set [4], the “tumor growth inhibition index (TGI)” value amounted to 91.7%. Besides, the adverse reactions entry in data set [5] is listed as “severe adverse reactions”. Besides, in [5], the body weight loss result was “more than 15%”. In the data set with NCIH1688 cells, the “killing effect on transplanted tumors not expressing Trop-2” value is on record as “had a killing effect”.
